The record followed here is ChEMBL document CHEMBL3044995, “Synthesis of allylic trifluoromethyl ketones and their activity as inhibitors of the sex pheromone of the leopard moth, Zeuzera pyrina L. (Lepidoptera: Cossidae)” (Pest Manag Sci, 2011).

In series [1] the test system is Zeuzera pyrina. Nature of the series: Effect on response of Zeuzera pyrina males to the calling female assessed as complete upwind fligts up to 10 ug by Wind tunnel assay. The series is classed as functional.
Series [2] relates to Zeuzera pyrina. Nature of the series: Inhibition of electroantennogram response of Zeuzera pyrina males to sex pheromone at 1 ug/antenna topical application by electrophysiology. The series is classed as functional.
The subject of series [3] is Zeuzera pyrina. Nature of the series: Inhibition of electroantennogram response of Zeuzera pyrina males to sex pheromone at 0.1 ug/antenna topical application by electrophysiology. The format is functional, organism-based.
Series [4] concerns Zeuzera pyrina. The experiment in a line: Effect on response of Zeuzera pyrina males to the calling female assessed as male took off up to 10 ug by Wind tunnel assay. The series is classed as functional.
Series [5] has as its system Zeuzera pyrina. Nature of the series: Effect on response of Zeuzera pyrina males to the calling female assessed as flight towords source up to 10 ug by Wind tunnel assay. The series is classed as functional.
Series [6] deals with Zeuzera pyrina. Nature of the series: Effect on response of Zeuzera pyrina males to the calling female assessed as contact to female up to 10 ug by Wind tunnel assay. The series is classed as functional.
Series [7] in a line: Toxicity in Swiss Mus musculus (mouse) measured after 6 days. The series is classed as organism-based. Particulars: in vivo.
Another series has as its system Daphnia. The experiment in a line: Toxicity in Daphnia assessed as survial. The format is organism-based.
In series [8] the test system is Zeuzera pyrina. Nature of the series: Inhibition of electroantennogram response of Zeuzera pyrina males to sex pheromone at =>0.05 ug/antenna topical application by electrophysiology. The format is functional, organism-based.
The subject of series [9] is Zeuzera pyrina. The experiment in a line: Inhibition of electroantennogram response of Zeuzera pyrina males to sex pheromone at 0.5 ug/antenna topical application by electrophysiology. The series is classed as functional, organism-based.

The term LD50 denotes the dose at which mortality reaches 50%. A higher LD50 goes with a less toxic substance. One may read the EC50 as the concentration giving half of the maximal effect.

≈ marks a conversion by molar mass, not a printed value. Calls of active or inactive are those of the source. The rule behind the calls is not given here.

With `CCCC/C=C\CCCCCCCC/C=C/CCC(=O)C(F)(F)F`, the Activity in the series with Zeuzera pyrina [1] is 55%; in the series with Zeuzera pyrina [4], 95%; in the series with Zeuzera pyrina [5], 62%; with Zeuzera pyrina [6], 55%. In addition, the “inhibition (INH)” value in the series with Zeuzera pyrina [2] is recorded as over 80%. Also, the outcome in the series with Zeuzera pyrina [3] was Active.

Turning to `CCCCCCCCSCC(=O)C(F)(F)F`, the LD50 at 144 h in series [7] amounted to 1000 mg/kg.

The compound `CCCC/C=C\CCCCCCCCCCC(=O)C(F)(F)F` came in with an LD50 at 144 h in series [7] of 1000 mg/kg. In addition, the EC50 in the series on Daphnia was 0.07 µg/mL (≈ 0.218 µM).

On to `CCCC/C=C\CCCCCCCCC/C=C/CC(=O)C(F)(F)F`, for which the “inhibition (INH)” value in the series on Zeuzera pyrina [2] is over 80%. The inhibition entry in the series with Zeuzera pyrina [8] and in the series with Zeuzera pyrina [9] was “Active” each time. For the same compound, the outcome in the series on Zeuzera pyrina [3] was Active.
